Assay results taken from US10722520B2, “Heterocyclic compounds and their use in preventing or treating bacterial infections” (MUTABILIS, priority 2016, dated 2020).
Read-outs that look alike come from different tables or passages of the source.

Columns and labels:
SHV-1 = SHV-1 (Klebsiella pneumoniae, UniProt P0AD64)
E. coli UFR61O = assay: MIC of ceftazidime (CAZ) at fixed concentration of compound (synergy), broth microdilution; format: cell-based; details: MIC of ceftazidime with compound fixed at 4 μg/mL; strain UFR61O (E. coli)
Summary of the method: (§1)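 Visual end point: lowest concentration that blocked growth. Conditions: cation-adjusted Mueller-Hinton broth, 5×10^5 cfu/mL final inoculum of log-phase bacteria, 16-20 h, 35° C, ambient atmosphere.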

K. pneumoniae UFR77 = assay: as above; format: cell-based; details: MIC of ceftazidime with compound fixed at 4 μg/mL; strain UFR77 (K. pneumoniae)
Summary of the method: as §1

E. cloacae UFR51 = assay: as above; format: cell-based; details: MIC of ceftazidime with compound fixed at 4 μg/mL; strain UFR51 (E. cloacae)
Summary of the method: as §1

K. pneumoniae BAA-1898 = assay: as above; format: cell-based; details: MIC of ceftazidime with compound fixed at 4 μg/mL; strain BAA-1898 (K. pneumoniae)
Summary of the method: as §1

E. coli UFR18 = assay: as above; format: cell-based; details: MIC of ceftazidime with compound fixed at 4 μg/mL; strain UFR18 (E. coli)
Summary of the method: as §1

E. coli 131119 = assay: as above; format: cell-based; details: MIC of ceftazidime with compound fixed at 4 μg/mL; strain 131119 (E. coli)
Summary of the method: as §1

K. oxytoca UFR21 = assay: as above; format: cell-based; details: MIC of ceftazidime with compound fixed at 4 μg/mL; strain UFR21 (K. oxytoca)
Summary of the method: as §1

E. coli UFR39 = assay: as above; format: cell-based; details: MIC of ceftazidime with compound fixed at 4 μg/mL; strain UFR39 (E. coli)
Summary of the method: as §1

E. coli 190317 = assay: as above; format: cell-based; details: MIC of ceftazidime with compound fixed at 4 μg/mL; strain 190317 (E. coli)
Summary of the method: as §1

E. coli UFR41 = assay: as above; format: cell-based; details: MIC of ceftazidime with compound fixed at 4 μg/mL; strain UFR41 (E. coli)
Summary of the method: as §1

E. cloacae UFR85 = assay: as above; format: cell-based; details: MIC of ceftazidime with compound fixed at 4 μg/mL; strain UFR85 (E. cloacae)
Summary of the method: as §1

K. pneumoniae 200047 = assay: as above; format: cell-based; details: MIC of ceftazidime with compound fixed at 4 μg/mL; strain 200047 (K. pneumoniae)
Summary of the method: as §1

E. cloacae UFR70 = assay: as above; format: cell-based; details: MIC of ceftazidime with compound fixed at 4 μg/mL; strain UFR70 (E. cloacae)
Summary of the method: as §1

E. cloacae P99 = assay: as above; format: cell-based; details: MIC of ceftazidime with compound fixed at 4 μg/mL; strain P99 (E. cloacae)
Summary of the method: as §1

K. pneumoniae UFR24 = assay: as above; format: cell-based; details: MIC of ceftazidime with compound fixed at 4 μg/mL; strain UFR24 (K. pneumoniae)
Summary of the method: as §1

E. coli RGN238 = assay: as above; format: cell-based; details: MIC of ceftazidime with compound fixed at 4 μg/mL; strain RGN238 (E. coli)
Summary of the method: as §1

K. pneumoniae 6299 = assay: as above; format: cell-based; details: MIC of ceftazidime with compound fixed at 4 μg/mL; strain 6299 (K. pneumoniae)
Summary of the method: as §1

E. coli UFR32 = assay: as above; format: cell-based; details: MIC of ceftazidime with compound fixed at 4 μg/mL; strain UFR32 (E. coli)
Summary of the method: as §1

K. pneumoniae UFR68 = assay: as above; format: cell-based; details: MIC of ceftazidime with compound fixed at 4 μg/mL; strain UFR68 (K. pneumoniae)
Summary of the method: as §1

E. coli UFR74 = assay: as above; format: cell-based; details: MIC of ceftazidime with compound fixed at 4 μg/mL; strain UFR74 (E. coli)
Summary of the method: as §1

P. aeruginosa CIP107051 = assay: as above; format: cell-based; details: MIC of ceftazidime with compound fixed at 4 μg/mL; strain CIP107051 (P. aeruginosa)
Summary of the method: as §1

K. pneumoniae 160143 = assay: as above; format: cell-based; details: MIC of ceftazidime with compound fixed at 4 μg/mL; strain 160143 (K. pneumoniae)
Summary of the method: as §1

E. cloacae 260508 = assay: as above; format: cell-based; details: MIC of ceftazidime with compound fixed at 4 μg/mL; strain 260508 (E. cloacae)
Summary of the method: as §1

OXA-48 = OXA-48 (Klebsiella pneumoniae, UniProt Q6XEC0)
CTX-M-15 = CTX-M-15 (Escherichia coli, UniProt Q9EXV5)
KPC-2 = KPC-2 (Klebsiella pneumoniae, UniProt Q9F663)
CMY-37 = CMY-37 (Citrobacter freundii, UniProt P05193); details: read-out: IC50 β-lactamase CMY-37; class (C); nitrocefin 200 μM, 30-min pre-incubation, enzyme 0.2 nM
TEM-1 = TEM-1 (Escherichia coli, UniProt P62593)
OXA-15 = OXA-15 (Pseudomonas aeruginosa, UniProt Q51574); assay: biochemical
Sequence of OXA-15 (Q51574 22-275): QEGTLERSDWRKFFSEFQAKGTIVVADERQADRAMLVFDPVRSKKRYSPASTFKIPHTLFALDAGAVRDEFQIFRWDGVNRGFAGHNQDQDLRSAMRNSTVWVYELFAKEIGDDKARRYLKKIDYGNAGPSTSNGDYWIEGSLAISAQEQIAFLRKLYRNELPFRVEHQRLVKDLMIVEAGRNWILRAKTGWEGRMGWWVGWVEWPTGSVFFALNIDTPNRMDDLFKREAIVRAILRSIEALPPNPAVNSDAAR

Sequence of OXA-48 (Q6XEC0 23-265, looked up, species assumed): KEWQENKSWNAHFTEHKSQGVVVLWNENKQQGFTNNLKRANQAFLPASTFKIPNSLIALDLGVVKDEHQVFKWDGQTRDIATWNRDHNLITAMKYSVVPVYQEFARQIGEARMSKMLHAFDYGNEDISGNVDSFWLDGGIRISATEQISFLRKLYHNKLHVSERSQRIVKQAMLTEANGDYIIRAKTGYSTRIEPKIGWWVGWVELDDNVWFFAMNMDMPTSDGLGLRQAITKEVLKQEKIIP
Sequence of CTX-M-15 (Q9EXV5 29-291, species assumed): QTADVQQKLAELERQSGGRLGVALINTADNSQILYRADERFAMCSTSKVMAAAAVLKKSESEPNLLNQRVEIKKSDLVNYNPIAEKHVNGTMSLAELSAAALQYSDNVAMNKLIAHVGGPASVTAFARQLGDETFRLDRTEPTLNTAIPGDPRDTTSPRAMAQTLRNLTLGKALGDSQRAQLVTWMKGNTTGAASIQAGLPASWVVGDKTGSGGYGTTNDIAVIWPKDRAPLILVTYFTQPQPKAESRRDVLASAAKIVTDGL
Sequence of KPC-2 (Q9F663 25-293, looked up, species assumed): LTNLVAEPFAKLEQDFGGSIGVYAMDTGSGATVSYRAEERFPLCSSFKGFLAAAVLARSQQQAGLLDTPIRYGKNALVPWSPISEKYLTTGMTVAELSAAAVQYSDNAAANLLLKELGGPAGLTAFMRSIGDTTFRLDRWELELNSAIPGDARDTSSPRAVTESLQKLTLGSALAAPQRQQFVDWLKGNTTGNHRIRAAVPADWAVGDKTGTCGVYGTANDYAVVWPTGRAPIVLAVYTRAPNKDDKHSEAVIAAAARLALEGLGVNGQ
Sequence of TEM-1 (P62593 24-286 limits assumed): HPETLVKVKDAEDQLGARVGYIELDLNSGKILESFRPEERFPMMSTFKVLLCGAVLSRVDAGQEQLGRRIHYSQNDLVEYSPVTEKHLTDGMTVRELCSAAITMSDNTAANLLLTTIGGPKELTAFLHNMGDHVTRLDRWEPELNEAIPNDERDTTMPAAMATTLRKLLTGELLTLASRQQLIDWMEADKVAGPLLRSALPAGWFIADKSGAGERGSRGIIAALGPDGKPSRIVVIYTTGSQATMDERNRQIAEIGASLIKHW
Sequence of SHV-1 (P0AD64 22-286): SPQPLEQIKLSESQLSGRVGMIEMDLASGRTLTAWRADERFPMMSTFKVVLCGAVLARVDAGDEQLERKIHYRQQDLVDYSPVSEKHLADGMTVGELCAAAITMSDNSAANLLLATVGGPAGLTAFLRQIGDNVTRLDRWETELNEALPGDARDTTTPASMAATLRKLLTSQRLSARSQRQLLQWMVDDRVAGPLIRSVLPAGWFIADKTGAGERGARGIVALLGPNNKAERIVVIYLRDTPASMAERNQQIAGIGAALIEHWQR
Sequence of CMY-37 (P05193 21-381 limits assumed): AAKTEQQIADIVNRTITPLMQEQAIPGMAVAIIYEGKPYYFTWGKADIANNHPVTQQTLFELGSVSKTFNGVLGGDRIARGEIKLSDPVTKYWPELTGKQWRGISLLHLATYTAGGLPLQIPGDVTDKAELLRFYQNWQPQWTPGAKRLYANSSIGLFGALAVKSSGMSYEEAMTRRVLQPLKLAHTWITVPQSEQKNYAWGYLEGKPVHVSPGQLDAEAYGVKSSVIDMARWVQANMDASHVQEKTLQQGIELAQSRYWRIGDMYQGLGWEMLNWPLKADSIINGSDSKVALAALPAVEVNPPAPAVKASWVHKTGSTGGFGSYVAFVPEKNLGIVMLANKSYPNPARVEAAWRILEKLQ

Row | SMILES | MIC combination of CAZ and compounds of the invention at 4 μg/mL (E. coli UFR61O) | MIC combination of CAZ and compounds of the invention at 4 μg/mL (K. pneumoniae UFR77) | MIC combination of CAZ and compounds of the invention at 4 μg/mL (E. cloacae UFR51) | MIC combination of CAZ and compounds of the invention at 4 μg/mL (K. pneumoniae BAA-1898) | MIC combination of CAZ and compounds of the invention at 4 μg/mL (E. coli UFR18) | MIC combination of CAZ and compounds of the invention at 4 μg/mL (E. coli 131119) | MIC combination of CAZ and compounds of the invention at 4 μg/mL (K. oxytoca UFR21) | MIC combination of CAZ and compounds of the invention at 4 μg/mL (E. coli UFR39) | MIC combination of CAZ and compounds of the invention at 4 μg/mL (E. coli 190317) | MIC combination of CAZ and compounds of the invention at 4 μg/mL (E. coli UFR41) | MIC combination of CAZ and compounds of the invention at 4 μg/mL (E. cloacae UFR85) | MIC combination of CAZ and compounds of the invention at 4 μg/mL (K. pneumoniae 200047) | MIC combination of CAZ and compounds of the invention at 4 μg/mL (E. cloacae UFR70) | MIC combination of CAZ and compounds of the invention at 4 μg/mL (E. cloacae P99) | MIC combination of CAZ and compounds of the invention at 4 μg/mL (K. pneumoniae UFR24) | MIC combination of CAZ and compounds of the invention at 4 μg/mL (E. coli RGN238) | MIC combination of CAZ and compounds of the invention at 4 μg/mL (K. pneumoniae 6299) | MIC combination of CAZ and compounds of the invention at 4 μg/mL (E. coli UFR32) | MIC combination of CAZ and compounds of the invention at 4 μg/mL (K. pneumoniae UFR68) | MIC combination of CAZ and compounds of the invention at 4 μg/mL (E. coli UFR74) | other results
1 | O=C1N2CC(n3ccnn3)=CC(C2)N1OS(=O)(=O)[O-].[Na+] (stereo not shown) [Example 2, sodium [7-oxo-3-(triazol-1-yl)-1,6-diazabicyclo[3.2.1]oct-3-en-6-yl]sulfate] | <0.25 | <0.25 | <0.25 | <0.25 | <0.25 | <0.25 | <0.25 | <0.25 | <0.25 | <0.25 | <0.25 | <0.25 | <0.25 | <0.25 | ≤0.25 | <0.25 | <0.25 | <0.25 | <0.25 | <0.25 | IC50 (SHV-1; read-out: IC50 β-lactamase SHV-1, class (A), nitrocefin 200 μM, 30-min pre-incubation, enzyme 0.075 nM): 4 nM; MIC combination of CAZ and compounds of the invention at 4 μg/mL (P. aeruginosa CIP107051): 4; MIC combination of CAZ and compounds of the invention at 4 μg/mL (K. pneumoniae 160143): <0.25; MIC combination of CAZ and compounds of the invention at 4 μg/mL (E. cloacae 260508): <0.25; IC50 (OXA-48; read-out: IC50 β-lactamase OXA-48, class (D), nitrocefin 200 μM, 30-min pre-incubation, enzyme 0.3 nM): 0.59 nM; IC50 (CTX-M-15; read-out: IC50 β-lactamase CTX-M-15, class (A), nitrocefin 200 μM, 30-min pre-incubation, enzyme 0.4 nM): 0.67 nM; IC50 (KPC-2; read-out: IC50 β-lactamase KPC-2, class (A), nitrocefin 200 μM, 30-min pre-incubation, enzyme 1 nM): 4.7 nM; IC50 (CMY-37): 31 nM; IC50 (TEM-1; read-out: IC50 β-lactamase TEM-1, class (A), nitrocefin 200 μM, 30-min pre-incubation, enzyme 0.1 nM): 0.56 nM
2 | O=C1N2CC(n3nccn3)=CC(C2)N1OS(=O)(=O)O (stereo not shown) [Example 3, sodium [7-oxo-3-(triazol-2-yl)-1,6-diazabicyclo[3.2.1]oct-3-en-6-yl]sulfate] | ≤0.25 | <0.25 | <0.25 | 0.5 | <0.25 | <0.25 | 0.5 | >128 | <0.25 | >128 | <0.25 | <0.25 | <0.25 | ≤0.25 | ≤0.25 | <0.25 | <0.25 | <0.25 | 0.5 | <0.25 | IC50 (SHV-1): 9.7 nM; MIC combination of CAZ and compounds of the invention at 4 μg/mL (P. aeruginosa CIP107051): 4; MIC combination of CAZ and compounds of the invention at 4 μg/mL (K. pneumoniae 160143): <0.25; MIC combination of CAZ and compounds of the invention at 4 μg/mL (E. cloacae 260508): <0.25; IC50 (OXA-48): 1.6 nM; IC50 (OXA-15): 190 nM; IC50 (CTX-M-15): 2.1 nM; IC50 (KPC-2): 12 nM; IC50 (TEM-1): 0.73 nM
